From patent publication US20100267561A1, “HERBICIDAL PYRIDAZINONE DERIVATIVES” (priority 2007, published 2010)

Experiments:
Test in all cases: Test B pre-/postemergence plant response
Assay type in all cases: in vivo
[1] = system: giant foxtail (Setaria faberii)
In short: (§1)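 Preemergence and postemergence (plants 2-18 cm, 1- to 4-leaf stage) applications used test chemicals in a non-phytotoxic solvent with surfactant. Plants were held in a greenhouse 13 to 15 days, then rated visually against controls on a 0-100 scale (0 no effect, 100 complete control).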

[2] = system: blackgrass (Alopecurus myosuroides); settings: for Blackgrass plant response rating: 8 g ai/ha
In short: as §1

[3] = system: woolly cupgrass (Eriochloa villosa)
In short: as §1

[4] = system: downy bromegrass (Bromus tectorum); settings: for Bromegrass, Downy plant response rating: 8 g ai/ha
In short: as §1

[5] = system: common ragweed (Ambrosia elation)
In short: as §1

[6] = system: lambsquarters (Chenopodium album)
In short: as §1

[7] = system: velvetleaf (Abutilon theophrasti)
In short: as §1

[8] = system: yellow nutsedge (Cyperus esculentus)
In short: as §1

wild oat (Avena fatua) = system: wild oat (Avena fatua)
In short: as §1

corn (Zea mays) = system: corn (Zea mays)
In short: as §1

[9] = system: catchweed bedstraw (Galium aparine); settings: Preemergence
In short: as §1

[10] = system: common (oilseed) sunflower (Helianthus annuus); settings: Preemergence
In short: as §1

kochia (Kochia scoparia) = system: kochia (Kochia scoparia)
In short: as §1

[11] = system: pigweed (Amaranthus retroflexus)
In short: as §1

[12] = 8 g ai/ha, postemergence, 0-100 scale
[13] = Postemergence, 16 g ai/ha, scale 0 to 100
[14] = Postemergence, 31 g ai/ha, scale 0 to 100
[15] = Postemergence, 62 g ai/ha, scale 0 to 100, 0 no effect, 100 complete control
[16] = Preemergence, 31 g ai/ha, scale 0 to 100 (0 no effect, 100 complete control)
[17] = Preemergence, 62 g ai/ha, 0 to 100 scale, 0 no effect, 100 complete control
[18] = Preemergence, 8 g ai/ha, scale 0 to 100
[19] = Preemergence, 16 g ai/ha, scale 0 to 100
[20] = Preemergence, 16 g ai/ha, scale 0 to 100 (0 no effect, 100 complete control)
[21] = 31 g ai/ha, scale 0 to 100 (0 no effect, 100 complete control)
[22] = 62 g ai/ha, 0 to 100 scale, 0 no effect, 100 complete control
[23] = Postemergence, 31 g ai/ha, scale 0 to 100, 0 no effect, 100 complete control
[24] = Preemergence, 31 g ai/ha, 0 to 100 scale, 0 no effect, 100 complete control
[25] = Preemergence, 62 g ai/ha, scale 0 to 100

CCCC(=O)Oc1cnn(C)c(=O)c1-n1nc(-c2ccc(Cl)cc2)cc1C [Compound 56]
Foxtail, Giant plant response rating [1, 12]: 75
Plant response rating, Foxtail, Giant [1, 13]: 98
Plant response rating, Foxtail, Giant [1, 14]: 98
Plant response rating, Foxtail, Giant [1, 15]: 100
Plant response rating, Foxtail, Giant [1, 16]: 100
Plant response rating, Foxtail, Giant [1, 17]: 100
Foxtail, Giant plant response rating [1, 18]: 95
Foxtail, Giant plant response rating [1, 19]: 100
Blackgrass plant response rating ([2]; postemergence, 0-100 scale): 0
Plant response rating, Blackgrass [2, 13]: 65
Plant response rating, Blackgrass [2, 14]: 95
Plant response rating, Blackgrass [2, 15]: 98
Plant response rating, Blackgrass [2, 20]: 60
Plant response rating, Blackgrass [2, 16]: 98
Plant response rating, Blackgrass [2, 17]: 98
Blackgrass plant response rating ([2]; Preemergence, scale 0 to 100): 40
Cupgrass, Woolly plant response rating [3, 12]: 95
Plant response rating, Cupgrass, Woolly [3, 13]: 100
Plant response rating, Cupgrass, Woolly [3, 14]: 100
Plant response rating, Cupgrass, Woolly [3, 15]: 100
Plant response rating, Cupgrass, Woolly [3, 16]: 100
Plant response rating, Cupgrass, Woolly [3, 17]: 100
Cupgrass, Woolly plant response rating [3, 18]: 0
Cupgrass, Woolly plant response rating [3, 19]: 80
Bromegrass, Downy plant response rating ([4]; postemergence, 0-100 scale): 0
Plant response rating, Bromegrass, Downy [4, 13]: 0
Plant response rating, Bromegrass, Downy [4, 14]: 0
Plant response rating, Bromegrass, Downy [4, 15]: 0
Plant response rating, Bromegrass, Downy [4, 20]: 20
Plant response rating, Bromegrass, Downy [4, 16]: 45
Plant response rating, Bromegrass, Downy [4, 17]: 75
Bromegrass, Downy plant response rating ([4]; Preemergence, scale 0 to 100): 0
Ragweed plant response rating [5, 12]: 0
Plant response rating, Ragweed [5, 13]: 0
Plant response rating, Ragweed [5, 14]: 0
Plant response rating, Ragweed [5, 15]: 0
Plant response rating, Ragweed [5, 16]: 0
Plant response rating, Ragweed [5, 17]: 0
Ragweed plant response rating [5, 18]: 0
Ragweed plant response rating [5, 19]: 0
Lambsquarters plant response rating [6, 12]: 0
Plant response rating, Lambsquarters [6, 13]: 0
Plant response rating, Lambsquarters [6, 14]: 0
Plant response rating, Lambsquarters [6, 15]: 0
Plant response rating, Lambsquarters [6, 16]: 0
Plant response rating, Lambsquarters [6, 17]: 20
Lambsquarters plant response rating [6, 18]: 0
Lambsquarters plant response rating [6, 19]: 0
Velvetleaf plant response rating [7, 12]: 0
Plant response rating, Velvetleaf [7, 13]: 0
Plant response rating, Velvetleaf [7, 14]: 0
Plant response rating, Velvetleaf [7, 15]: 0
Plant response rating, Velvetleaf [7, 16]: 0
Plant response rating, Velvetleaf [7, 17]: 0
Velvetleaf plant response rating [7, 18]: 0
Velvetleaf plant response rating [7, 19]: 0
Nutsedge, Yellow plant response rating [8, 12]: 0
Plant response rating, Nutsedge, Yellow [8, 13]: 0
Plant response rating, Nutsedge, Yellow [8, 14]: 0
Plant response rating, Nutsedge, Yellow [8, 15]: 0
Plant response rating, Nutsedge, Yellow [8, 16]: 0
Plant response rating, Nutsedge, Yellow [8, 17]: 0
Nutsedge, Yellow plant response rating [8, 18]: 0
Nutsedge, Yellow plant response rating [8, 19]: 0
Oat, Wild plant response rating (wild oat (Avena fatua); [12]): 5
Plant response rating, Oat, Wild (wild oat (Avena fatua); [13]): 85
Plant response rating, Oat, Wild (wild oat (Avena fatua); [14]): 90
Plant response rating, Oat, Wild (wild oat (Avena fatua); [15]): 90
Plant response rating, Oat, Wild (wild oat (Avena fatua); [16]): 60
Plant response rating, Oat, Wild (wild oat (Avena fatua); [17]): 90
Oat, Wild plant response rating (wild oat (Avena fatua); [18]): 0
Oat, Wild plant response rating (wild oat (Avena fatua); [19]): 50
Corn plant response rating (corn (Zea mays); [12]): 75
Plant response rating, Corn (corn (Zea mays); [13]): 85
Plant response rating, Corn (corn (Zea mays); [14]): 95
Plant response rating, Corn (corn (Zea mays); [15]): 95
Plant response rating, Corn (corn (Zea mays); [16]): 95
Plant response rating, Corn (corn (Zea mays); [17]): 95
Corn plant response rating (corn (Zea mays); [18]): 0
Corn plant response rating (corn (Zea mays); [19]): 10
Plant response rating, Galium [9, 21]: 0
Plant response rating, Galium [9, 22]: 0
Galium plant response rating ([9]; 8 g ai/ha, scale 0 to 100): 0
Galium plant response rating ([9]; 16 g ai/ha, scale 0 to 100): 0
Plant response rating, Sunflower [10, 21]: 0
Plant response rating, Sunflower [10, 22]: 0
Sunflower plant response rating ([10]; 8 g ai/ha, scale 0 to 100): 0
Sunflower plant response rating ([10]; 16 g ai/ha, scale 0 to 100): 0
Kochia plant response rating (kochia (Kochia scoparia); [12]): 0
Plant response rating, Kochia (kochia (Kochia scoparia); [13]): 0
Plant response rating, Kochia (kochia (Kochia scoparia); [14]): 0
Plant response rating, Kochia (kochia (Kochia scoparia); [15]): 0
Plant response rating, Kochia (kochia (Kochia scoparia); [16]): 98
Plant response rating, Kochia (kochia (Kochia scoparia); [17]): 100
Kochia plant response rating (kochia (Kochia scoparia); [18]): 0
Kochia plant response rating (kochia (Kochia scoparia); [19]): 20
Pigweed plant response rating [11, 12]: 0
Plant response rating, Pigweed [11, 13]: 0
Plant response rating, Pigweed [11, 14]: 0
Plant response rating, Pigweed [11, 15]: 0
Plant response rating, Pigweed [11, 16]: 0
Plant response rating, Pigweed [11, 17]: 0
Pigweed plant response rating [11, 18]: 0
Pigweed plant response rating [11, 19]: 0

Cc1cc(-c2ccc(C(F)(F)F)c(F)c2)nn1-c1c(O)c(C(F)(F)F)nn(C)c1=O [Compound 44]
Foxtail, Giant plant response rating [1, 12]: 95
Plant response rating, Foxtail, Giant [1, 13]: 98
Plant response rating, Foxtail, Giant [1, 23]: 100
Plant response rating, Foxtail, Giant [1, 15]: 100
Plant response rating, Foxtail, Giant [1, 20]: 0
Plant response rating, Foxtail, Giant [1, 24]: 0
Plant response rating, Foxtail, Giant [1, 25]: 0
Foxtail, Giant plant response rating [1, 18]: 0
Blackgrass plant response rating ([2]; postemergence, 0-100 scale): 85
Plant response rating, Blackgrass [2, 13]: 90
Plant response rating, Blackgrass [2, 23]: 98
Plant response rating, Blackgrass [2, 15]: 98
Plant response rating, Blackgrass [2, 20]: 100
Plant response rating, Blackgrass [2, 24]: 100
Plant response rating, Blackgrass [2, 25]: 100
Blackgrass plant response rating ([2]; Preemergence, scale 0 to 100): 90
Cupgrass, Woolly plant response rating [3, 12]: 98
Plant response rating, Cupgrass, Woolly [3, 13]: 98
Plant response rating, Cupgrass, Woolly [3, 23]: 100
Plant response rating, Cupgrass, Woolly [3, 15]: 100
Plant response rating, Cupgrass, Woolly [3, 20]: 0
Plant response rating, Cupgrass, Woolly [3, 24]: 0
Plant response rating, Cupgrass, Woolly [3, 25]: 100
Bromegrass, Downy plant response rating ([4]; postemergence, 0-100 scale): 40
Plant response rating, Bromegrass, Downy [4, 13]: 60
Plant response rating, Bromegrass, Downy [4, 23]: 70
Plant response rating, Bromegrass, Downy [4, 15]: 90
Plant response rating, Bromegrass, Downy [4, 20]: 20
Plant response rating, Bromegrass, Downy [4, 24]: 60
Plant response rating, Bromegrass, Downy [4, 25]: 85
Bromegrass, Downy plant response rating ([4]; Preemergence, scale 0 to 100): 0
Ragweed plant response rating [5, 12]: 0
Plant response rating, Ragweed [5, 13]: 0
Plant response rating, Ragweed [5, 23]: 0
Plant response rating, Ragweed [5, 15]: 0
Plant response rating, Ragweed [5, 20]: 0
Plant response rating, Ragweed [5, 16]: 0
Plant response rating, Ragweed [5, 25]: 20
Ragweed plant response rating [5, 18]: 0
Lambsquarters plant response rating [6, 12]: 0
Plant response rating, Lambsquarters [6, 13]: 0
Plant response rating, Lambsquarters [6, 23]: 0
Plant response rating, Lambsquarters [6, 15]: 0
Plant response rating, Lambsquarters [6, 20]: 0
Plant response rating, Lambsquarters [6, 24]: 0
Plant response rating, Lambsquarters [6, 25]: 0
Lambsquarters plant response rating [6, 18]: 0
Velvetleaf plant response rating [7, 12]: 0
Plant response rating, Velvetleaf [7, 13]: 0
Plant response rating, Velvetleaf [7, 15]: 0
Plant response rating, Velvetleaf [7, 20]: 0
Plant response rating, Velvetleaf [7, 16]: 0
Plant response rating, Velvetleaf [7, 17]: 0
Velvetleaf plant response rating [7, 18]: 0
Nutsedge, Yellow plant response rating [8, 12]: 0
Plant response rating, Nutsedge, Yellow [8, 13]: 0
Plant response rating, Nutsedge, Yellow [8, 23]: 0
Plant response rating, Nutsedge, Yellow [8, 15]: 0
Plant response rating, Nutsedge, Yellow [8, 20]: 0
Plant response rating, Nutsedge, Yellow [8, 16]: 0
Plant response rating, Nutsedge, Yellow [8, 25]: 0
Nutsedge, Yellow plant response rating [8, 18]: 0
Oat, Wild plant response rating (wild oat (Avena fatua); [12]): 90
Plant response rating, Oat, Wild (wild oat (Avena fatua); [13]): 95
Plant response rating, Oat, Wild (wild oat (Avena fatua); [23]): 100
Plant response rating, Oat, Wild (wild oat (Avena fatua); [15]): 100
Plant response rating, Oat, Wild (wild oat (Avena fatua); [20]): 80
Plant response rating, Oat, Wild (wild oat (Avena fatua); [16]): 85
Plant response rating, Oat, Wild (wild oat (Avena fatua); [25]): 90
Oat, Wild plant response rating (wild oat (Avena fatua); [18]): 25
Corn plant response rating (corn (Zea mays); [12]): 85
Plant response rating, Corn (corn (Zea mays); [13]): 95
Plant response rating, Corn (corn (Zea mays); [23]): 95
Plant response rating, Corn (corn (Zea mays); [15]): 95
Plant response rating, Corn (corn (Zea mays); [20]): 55
Plant response rating, Corn (corn (Zea mays); [24]): 65
Plant response rating, Corn (corn (Zea mays); [25]): 85
Corn plant response rating (corn (Zea mays); [18]): 0
Plant response rating, Galium ([9]; 62 g ai/ha, scale 0 to 100): 0
Galium plant response rating ([9]; 8 g ai/ha, scale 0 to 100): 0
Plant response rating, Sunflower ([10]; 16 g ai/ha, scale 0 to 100 (0 no effect, 100 complete control)): 0
Plant response rating, Sunflower ([10]; 62 g ai/ha, scale 0 to 100): 0
Sunflower plant response rating ([10]; 8 g ai/ha, scale 0 to 100): 0
Kochia plant response rating (kochia (Kochia scoparia); [12]): 0
Plant response rating, Kochia (kochia (Kochia scoparia); [13]): 0
Plant response rating, Kochia (kochia (Kochia scoparia); [23]): 0
Plant response rating, Kochia (kochia (Kochia scoparia); [15]): 0
Plant response rating, Kochia (kochia (Kochia scoparia); [20]): 0
Plant response rating, Kochia (kochia (Kochia scoparia); [24]): 0
Plant response rating, Kochia (kochia (Kochia scoparia); [25]): 100
Kochia plant response rating (kochia (Kochia scoparia); [18]): 0
Pigweed plant response rating [11, 12]: 0
Plant response rating, Pigweed [11, 13]: 0
Plant response rating, Pigweed [11, 23]: 0
Plant response rating, Pigweed [11, 15]: 0
Plant response rating, Pigweed [11, 20]: 0
Plant response rating, Pigweed [11, 16]: 0
Plant response rating, Pigweed [11, 25]: 0
Pigweed plant response rating [11, 18]: 0
